One data set deals with T1, UGT1A1 (Homo sapiens, UniProt P22309).
T1 sequence (P22309 26-533): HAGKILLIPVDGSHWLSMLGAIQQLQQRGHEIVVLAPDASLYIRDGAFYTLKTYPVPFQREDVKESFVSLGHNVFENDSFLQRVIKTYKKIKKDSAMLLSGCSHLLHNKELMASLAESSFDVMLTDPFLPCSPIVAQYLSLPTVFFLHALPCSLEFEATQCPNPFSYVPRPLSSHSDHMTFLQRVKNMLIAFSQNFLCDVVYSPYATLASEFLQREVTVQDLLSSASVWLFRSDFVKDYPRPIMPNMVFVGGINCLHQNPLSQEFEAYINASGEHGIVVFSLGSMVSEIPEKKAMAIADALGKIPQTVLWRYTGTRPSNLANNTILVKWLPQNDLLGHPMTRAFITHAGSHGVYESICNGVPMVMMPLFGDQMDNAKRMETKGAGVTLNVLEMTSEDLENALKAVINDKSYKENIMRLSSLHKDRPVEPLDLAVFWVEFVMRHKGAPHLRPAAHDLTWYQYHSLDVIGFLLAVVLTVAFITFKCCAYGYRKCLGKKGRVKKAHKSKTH
The data set can be described thus: DDI perpetrator study: dolutegravir probe. It is filed as in vivo. The note with it: human, plasma, oral, 50 mg; for AUC: dolutegravir, probe alone (day 1), geometric mean.

In a further data set the test system is CYP3A4. Briefly: clinical. The note with it: human, plasma, oral; for AUC: geometric mean.
For another data set, the target named is T2, CYP2C8 (Homo sapiens, UniProt P10632).
T2 sequence (P10632 1-490): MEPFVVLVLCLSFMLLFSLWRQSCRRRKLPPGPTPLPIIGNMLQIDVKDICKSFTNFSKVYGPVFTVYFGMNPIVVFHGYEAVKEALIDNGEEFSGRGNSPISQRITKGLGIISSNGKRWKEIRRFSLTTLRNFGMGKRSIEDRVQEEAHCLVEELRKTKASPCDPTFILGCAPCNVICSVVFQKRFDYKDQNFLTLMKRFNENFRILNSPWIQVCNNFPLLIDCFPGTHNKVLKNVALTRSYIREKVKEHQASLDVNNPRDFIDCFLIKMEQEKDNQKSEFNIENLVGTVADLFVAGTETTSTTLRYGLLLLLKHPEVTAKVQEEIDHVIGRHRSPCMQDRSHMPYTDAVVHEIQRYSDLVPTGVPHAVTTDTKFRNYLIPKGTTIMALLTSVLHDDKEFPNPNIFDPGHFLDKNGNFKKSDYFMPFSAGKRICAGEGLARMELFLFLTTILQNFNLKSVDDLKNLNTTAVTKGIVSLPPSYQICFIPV
Briefly: DDI perpetrator study: repaglinide probe. It counts as in vivo. Conditions: human, plasma, oral, 0.5 mg; for AUC: repaglinide, probe alone (day 1), geometric mean.

The target in a further data set is T3, BCRP (Homo sapiens, UniProt Q9UNQ0).
T3 sequence (Q9UNQ0 1-655): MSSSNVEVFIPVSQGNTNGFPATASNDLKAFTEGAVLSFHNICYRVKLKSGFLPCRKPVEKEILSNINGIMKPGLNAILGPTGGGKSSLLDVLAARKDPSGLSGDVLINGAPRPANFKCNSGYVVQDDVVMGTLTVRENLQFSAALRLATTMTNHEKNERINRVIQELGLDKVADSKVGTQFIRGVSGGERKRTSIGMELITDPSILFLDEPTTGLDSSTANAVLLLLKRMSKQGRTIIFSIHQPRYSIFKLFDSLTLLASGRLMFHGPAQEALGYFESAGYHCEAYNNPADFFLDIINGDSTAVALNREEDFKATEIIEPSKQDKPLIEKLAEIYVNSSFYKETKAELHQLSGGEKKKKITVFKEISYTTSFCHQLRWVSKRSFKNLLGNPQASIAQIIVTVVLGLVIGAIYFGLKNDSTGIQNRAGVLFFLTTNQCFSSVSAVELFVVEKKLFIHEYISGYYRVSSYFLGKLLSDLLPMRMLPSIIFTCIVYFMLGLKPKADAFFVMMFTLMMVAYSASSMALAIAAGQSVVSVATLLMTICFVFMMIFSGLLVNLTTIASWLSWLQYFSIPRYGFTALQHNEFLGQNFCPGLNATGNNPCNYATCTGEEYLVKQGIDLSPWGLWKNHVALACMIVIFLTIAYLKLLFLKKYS
The data set can be described thus: DDI perpetrator study: rosuvastatin probe. It counts as in vivo. Conditions: human, plasma, oral, 10 mg; for AUC: rosuvastatin, probe alone (day 1), geometric mean.

As usually defined, the Cmax is the peak of the concentration-time curve. The AUC is the area under the concentration-time curve, a measure of exposure.

SMILES strings stand for the structures.

With `C[C@@H]1CCO[C@H]2Cn3cc(C(=O)NCc4ccc(F)cc4F)c(=O)c(O)c3C(=O)N12` [Dolutegravir], at UGT1A1, the concentration peaked (Cmax) at 2590 ng/mL. Also, the values for the AUC on UGT1A1 (AUC0‐inf) and on UGT1A1 (AUC0‐last) were 46300 ng·h/mL and 44600 ng·h/mL, respectively.

In the data set with CYP3A4 (2.5 mg), `Cc1ncc2n1-c1ccc(Cl)cc1C(c1ccccc1F)=NC2` [Midazolam] had a Cmax of 8.42 ng/mL. The AUC turned out to be 39.5 ng·h/mL with CYP3A4 (2.5 mg, AUC0‐inf, midazolam, probe alone (day 1)); 37.5 ng·h/mL in the data set with CYP3A4 (2.5 mg, AUC0‐last, midazolam, probe alone (day 1)); 34.7 ng·h/mL in the data set with CYP3A4 (AUC0‐inf, midazolam + miricorilant (day 10)).

At CYP2C8, `CCOc1cc(CC(=O)N[C@@H](CC(C)C)c2ccccc2N2CCCCC2)ccc1C(=O)O` [Repaglinide] yielded a Cmax of 2.94 ng/mL. Besides, the AUC on CYP2C8 (AUC0‐inf) was 7.27 ng·h/mL; on CYP2C8 (AUC0‐last), 6.68 ng·h/mL.

`CC(C)c1nc(N(C)S(C)(=O)=O)nc(-c2ccc(F)cc2)c1/C=C/[C@@H](O)C[C@@H](O)CC(=O)O` [Rosuvastatin] showed a peak concentration (Cmax) on BCRP of 2.35 ng/mL. Also, the AUC on BCRP (AUC0‐inf) came to 20.7 ng·h/mL; at BCRP (AUC0‐last), 17.1 ng·h/mL.

Values taken from publication PMC12709667 (Journal of Clinical Pharmacology, 2025).
